# How the values were obtained:
# HCT-15 = experiment: panel of 60 human tumor cell lines, growth inhibition (Colon Cancer); conditions: Homo sapiens
# NCI-H460 = experiment: panel of 60 human tumor cell lines, growth inhibition (Non-Small Cell Lung Cancer)
# RXF 393 = experiment: panel of 60 human tumor cell lines, growth inhibition (Renal Cancer); conditions: for GI50: RXF 393, RXF 393; for Percent Growth: RXF 393
# HCC-2998 = experiment: panel of 60 human tumor cell lines, growth inhibition (Colon Cancer); conditions: for Percent Growth: HCC-2998
# T-47D = experiment: panel of 60 human tumor cell lines, growth inhibition (Breast Cancer); conditions: for Percent Growth: T-47D
# NCI-H322M = experiment: panel of 60 human tumor cell lines, growth inhibition (Non-Small Cell Lung Cancer)
# HOP-92 = experiment: as above; conditions: for Percent Growth: HOP-92; for GI50: HOP-92, HOP-92
# SF-539 = experiment: panel of 60 human tumor cell lines, growth inhibition (CNS Cancer)
# NCI-H23 = experiment: panel of 60 human tumor cell lines, growth inhibition (Non-Small Cell Lung Cancer)
# SNB-19 = experiment: panel of 60 human tumor cell lines, growth inhibition (CNS Cancer)
structure (smiles),measurement,setting,value
"C=C1C(=O)O[C@H]2[C@H]1CC/C(COC(=O)NCCc1ccccn1)=C\CC[C@@]1(C)O[C@@H]21 [JVM 61, ((1aR,7aS,10aS,10bS,E)-1a-methyl-8-methylene-9-oxo-1a,2,3,6,7,7a,8,9,10a,10b-decahydrooxireno[2′,3′:9,10]cyclodeca[1,2-b]furan-5-yl)methyl-(2-(pyridin-2-yl)ethyl)carbamate]",GI50,HCT-15; HCT-15,3.5 µM
same,CC50,"HCT-15; HCT-15, read-out: LC50",50.1 µM
same,IC (TGI),"HCT-15; HCT-15, read-out: TGI",15.4 µM
same,GI50,"NCI-H460; Homo sapiens, NCI-H460",14.4 µM
same,CC50,"NCI-H460; Homo sapiens, NCI-H460, read-out: LC50",97.4 µM
same,IC (TGI),"NCI-H460; Homo sapiens, NCI-H460, read-out: TGI",37.5 µM
same,Percent Growth,"NCI-H460; NCI-H460, Log10 Concentration −4.0",−51%
same,Percent Growth,"NCI-H460; NCI-H460, Log10 Concentration −5.0",69%
same,Percent Growth,"NCI-H460; NCI-H460, Log10 Concentration −6.0",102%
same,Percent Growth,"NCI-H460; NCI-H460, Log10 Concentration −7.0",102%
same,Percent Growth,"NCI-H460; NCI-H460, Log10 Concentration −8.0",104%
same,GI50,RXF 393; Homo sapiens,2.22 µM
same,GI50,"RXF 393; Homo sapiens, 5-dose assay",2.22 µM
same,CC50,"RXF 393; Homo sapiens, RXF 393, read-out: LC50",45 µM
same,IC (TGI),"RXF 393; Homo sapiens, RXF 393, read-out: TGI",15.5 µM
same,Percent Growth,RXF 393; Log10 Concentration −4.0,−77%
same,Percent Growth,RXF 393; Log10 Concentration −5.0,2%
same,Percent Growth,RXF 393; Log10 Concentration −6.0,76%
same,Percent Growth,RXF 393; Log10 Concentration −8.0,101%
same,Percent Growth,HCC-2998; Log10 Concentration −4.0,−86%
same,Percent Growth,HCC-2998; Log10 Concentration −5.0,87%
same,Percent Growth,HCC-2998; Log10 Concentration −6.0,100%
same,Percent Growth,HCC-2998; Log10 Concentration −7.0,103%
same,Percent Growth,HCC-2998; Log10 Concentration −8.0,101%
same,GI50,"HCC-2998; Homo sapiens, HCC 2998",16.3 µM
same,CC50,"HCC-2998; Homo sapiens, HCC 2998, read-out: LC50",62.1 µM
same,IC (TGI),"HCC-2998; Homo sapiens, HCC 2998, read-out: TGI",31.8 µM
same,GI50,"T-47D; Homo sapiens, T47D",6.19 µM
same,CC50,"T-47D; Homo sapiens, T47D, read-out: LC50",> 100 µM
same,IC (TGI),"T-47D; Homo sapiens, T47D, read-out: TGI",25 µM
same,Percent Growth,T-47D; Log10 Concentration −4.0,−43%
same,Percent Growth,T-47D; Log10 Concentration −5.0,35%
same,Percent Growth,T-47D; Log10 Concentration −6.0,106%
same,Percent Growth,T-47D; Log10 Concentration −7.0,104%
same,Percent Growth,T-47D; Log10 Concentration −8.0,98%
same,GI50,NCI-H322M; Homo sapiens,22.5 µM
same,CC50,"NCI-H322M; Homo sapiens, read-out: LC50",> 100 µM
same,IC (TGI),"NCI-H322M; Homo sapiens, read-out: TGI",63.4 µM
same,Percent Growth,NCI-H322M; Log10 Concentration −4.0,−18%
same,Percent Growth,NCI-H322M; Log10 Concentration −5.0,87%
same,Percent Growth,NCI-H322M; Log10 Concentration −6.0,105%
same,Percent Growth,NCI-H322M; Log10 Concentration −7.0,103%
same,Percent Growth,NCI-H322M; Log10 Concentration −8.0,106%
same,Percent Growth,HOP-92; Log10 Concentration −4.0,−87%
same,Percent Growth,HOP-92; Log10 Concentration −5.0,12%
same,Percent Growth,HOP-92; Log10 Concentration −6.0,71%
same,Percent Growth,HOP-92; Log10 Concentration −7.0,66%
same,Percent Growth,HOP-92; Log10 Concentration −8.0,0.2%
same,GI50,HOP-92; Homo sapiens,2.25 µM
same,GI50,"HOP-92; Homo sapiens, 5-dose assay",2.25 µM
same,CC50,"HOP-92; Homo sapiens, HOP-92, read-out: LC50",42.2 µM
same,IC (TGI),"HOP-92; Homo sapiens, HOP-92, read-out: TGI",13.1 µM
same,GI50,"SF-539; Homo sapiens, SF-539",5.77 µM
same,CC50,"SF-539; Homo sapiens, SF-539, read-out: LC50",43.2 µM
same,IC (TGI),"SF-539; Homo sapiens, SF-539, read-out: TGI",15.4 µM
same,Percent Growth,"SF-539; SF-539, Log10 Concentration −4.0",−99%
same,Percent Growth,"SF-539; SF-539, Log10 Concentration −5.0",36%
same,Percent Growth,"SF-539; SF-539, Log10 Concentration −6.0",96%
same,Percent Growth,"SF-539; SF-539, Log10 Concentration −7.0",97%
same,Percent Growth,"SF-539; SF-539, Log10 Concentration −8.0",103%
same,GI50,"NCI-H23; Homo sapiens, NCI-H23",11.3 µM
same,CC50,"NCI-H23; Homo sapiens, NCI-H23, read-out: LC50",78.8 µM
same,IC (TGI),"NCI-H23; Homo sapiens, NCI-H23, read-out: TGI",29.9 µM
same,Percent Growth,"NCI-H23; NCI-H23, Log10 Concentration −4.0",−62%
same,Percent Growth,"NCI-H23; NCI-H23, Log10 Concentration −5.0",56%
same,Percent Growth,"NCI-H23; NCI-H23, Log10 Concentration −6.0",100%
same,Percent Growth,"NCI-H23; NCI-H23, Log10 Concentration −7.0",101%
same,Percent Growth,"NCI-H23; NCI-H23, Log10 Concentration −8.0",104%
same,GI50,"SNB-19; Homo sapiens, SNB-19",27.7 µM
same,CC50,"SNB-19; Homo sapiens, SNB-19, read-out: LC50",> 100 µM
same,IC (TGI),"SNB-19; Homo sapiens, SNB-19, read-out: TGI",160 µM
same,Percent Growth,"SNB-19; SNB-19, Log10 Concentration −4.0",3%
same,Percent Growth,"SNB-19; SNB-19, Log10 Concentration −5.0",88%
same,Percent Growth,"SNB-19; SNB-19, Log10 Concentration −6.0",94%
same,Percent Growth,"SNB-19; SNB-19, Log10 Concentration −7.0",93%
same,Percent Growth,"SNB-19; SNB-19, Log10 Concentration −8.0",97%

# Reference: patent US9469650B2, “Melampomagnolide B derivatives” (BOARD OF TRUSTEES OF THE UNIVERSITY OF ARKANSAS, priority 2013, dated 2016)
